Here are results for 20 compounds from US9339033B2, “1-aryl-5-alkyl pyrazole derivative compounds, processes of making and methods of using thereof” (MERIAL, INC., priority 2007, dated 2016).

For series [1], the system named is Rhipicephalus sanguineus (Brown Dog Tick). The experiment in a line: Method A: contact activity against ticks. It counts as in vivo. The conditions noted are these: 48 h; for LC50: read-out: LD50; for pest or weed control at 25 µg/mL: read-out: control of Rhipicephalus sanguineus. From the text:
• Method of Use Examples Method A: Screening Method to Test Contact Activity of Compounds Against Ticks
A solution of the test compound was used to coat the inner wall of glass vials and to treat two filter papers. Once dried, one filter paper was placed in the cap of the vial and the other in the bottom of the vial. Each treated vial was infested with 10 adult Rhipicephalus sanguineus (Brown Dog Tick). Contact of the ticks with residues was induced by holding the vials in a controlled environment (24° C., 90-95% relative humidity) and assessment was performed at 24, 48 hours after application in comparison with untreated controls.

The test system of series [2] is two spotted spidermite (Tetranychus urticae). The experiment in a line: Method K: Tetranychus urticae test; OP-resistant (spray application). As to conditions: read-out: activity (mortality in %), Tetranychus urticae. The procedure:
Method K: Tetranychus urticae Test; OP-Resistant (Spray Application)
French beans (Phaseolus vulgaris) which are heavily infested with all stages of the two spotted spidermite (Tetranychus urticae), are sprayed with a preparation of the active ingredient at the desired concentration.
After the specified period of time, mortality in % is determined. 100% means that all spider mites have been killed and 0% means that none of the spider mites have been killed.

In series [3] the test system is green peach aphid (Myzus persicae). The experiment in a line: Method J: Myzus persicae test (spray application). It counts as in vivo. The conditions noted are these: concentration of 500 g/ha, spray on infected Chinese cabbage leaf-disks. From the text: Method J: Myzus persicae Test (Spray Application)
100% means that all aphids have been killed; 0% means that none of the aphids have been killed.

Series [4] relates to western flower thrips (Frankliniella occidentalis). The series is described as follows: Method L: Frankliniella occidentalis test (spray application). Type of series: in vivo. As to conditions: concentration of 500 g/ha, spray on French bean leaf-disks. From the text:
Method L: Frankliniella occidentalis Test (Spray Application)
French bean (Phaseolus vulgaris) leaf-disks are sprayed with a test solution containing the desired concentration of the active ingredient. Once dry, the leaf disks are infested with western flower thrips (Frankliniella occidentalis).
100% means that all the thrips have been killed; 0% means that none of the thrips have been killed.

Series [5] has as its system fall armyworm larvae (Spodoptera frugiperda). The series is described as follows: Method I: Spodoptera frugiperda test (spray application). It counts as in vivo. As to conditions: concentration of 500 g/ha, spray on maize leaf sections. From the text: Method I: Spodoptera frugiperda Test (Spray Application)
Maize (Zea mais) leaf sections are sprayed with a preparation of the active ingredient of the desired concentration. Once dry, the leaf sections are infested with fall armyworm larvae (Spodoptera frugiperda).

For series [6], the system named is Ctenocephalides felis. The experiment in a line: Method B: contact activity against fleas. It counts as in vivo. As to conditions: 72 hours assessment. The procedure:
Method B: Screening Method to Test Contact Activity of Compounds Against Fleas
A solution of the test compound was dispensed, using a pipette, onto filter paper placed into a glass vial. The filter paper was allowed to dry before infesting each vial with 10 adult Ctenocephalides felis. The treated Ctenocephalides felis were held in a controlled environment (24° C., 90-95% relative humidity) and assessment was performed at 24, 48 and 72 hours after application in comparison with untreated controls.

The conditions of series [7]: cited from earlier work.
For series [8], the system named is am. serpentine leaf miner (Liriomyza trifolii). The experiment in a line: Method M: Liriomyza trifolii test (spray application). It counts as in vivo. As to conditions: concentration of 500 g/ha, spray on infested French bean leaf-disks. From the text:
Method M: Liriomyza trifolii Test (Spray Application)
French bean (Phaseolus vulgaris) leaf-disks infested with larvaes of the am. serpentine leaf miner (Liriomyza trifolii) are sprayed with a test solution containing the desired concentration of the active ingredient.
100% means that all the leaf miners have been killed; 0% means that none of the leaf miners have been killed.

Turning to `Cc1c([S+]([O-])C(F)(F)F)c(C#N)nn1-c1ccc(C(F)(F)F)cc1F` (stereo not shown) [Compound 14, 3-Cyano-1-(2-fluoro-4-trifluoromethylphenyl)-5-methyl-4-trifluoromethylsulfinylpyrazole], in series [1], the LC50 is below 6 mg/L and the pest or weed control at 25 µg/mL was at least 80%. Further, in series [2], the mortality at 100 g/ha is at least 80%. For the same compound, in series [3], the mortality at 500 g/ha is at least 80%.
Turning to `Cc1cc(C(F)(F)F)cc(Cl)c1-n1nc(C#N)c(SC(F)(F)F)c1C` [Compound 43, 1-(2-chloro-6-methyl-4-trifluoromethylphenyl)-3-cyano-5-methyl-4-trifluoromethylthiopyrazole], in series [1], the LC50 is below 6 mg/L and the pest or weed control at 25 µg/mL was at least 80%. This compound came in with a mortality at 500 g/ha in series [3] of at least 80%.
Take `Cc1c([S+]([O-])C(F)(F)F)c(C#N)nn1-c1c(F)cc(C(F)(F)F)cc1F` (stereo not shown) [Compound 12, 3-Cyano-1-(2,6-difluoro-4-trifluoromethylphenyl)-5-methyl-4-trifluoromethylsulfinylpyrazole]: in series [1], the LC50 is below 6 mg/L and the pest or weed control at 25 µg/mL is at least 80%. The same compound came in with a mortality at 500 g/ha in series [3] of at least 80%. Besides, the mortality at 500 g/ha in series [4] was at least 80%.
In the case of `Cc1c([S+]([O-])C(F)(F)F)c(C#N)nn1-c1c(Cl)cc(OC(F)(F)F)cc1Cl` (stereo not shown) [Compound 19, 3-Cyano-1-(2,6-dichloro-4-trifluoromethoxyphenyl)-5-methyl-4-trifluoromethylsulfinylpyrazole], in series [1], the LC50 is below 6 mg/L and the pest or weed control at 25 µg/mL was at least 80%. The mortality at 500 g/ha in series [3] is at least 80%. In addition, in series [4], the mortality at 500 g/ha is at least 80%.
With `N#Cc1nn(-c2c(Cl)cc(OC(F)(F)F)cc2Cl)c(CF)c1[S+]([O-])C(F)(F)F` (stereo not shown) [Compound 18, 3-Cyano-1-(2,6-dichloro-4-trifluoromethoxyphenyl)-5-fluoromethyl-4-trifluoromethylsulfinylpyrazole], in series [1], the LC50 was below 6 mg/L and the pest or weed control at 25 µg/mL was at least 80%. In series [3], this compound had a mortality at 500 g/ha of at least 80%.
For the compound `Cc1c([S+]([O-])C(F)(F)F)c(C#N)nn1-c1c(Cl)cc(C(F)(F)F)cc1Cl` (stereo not shown) [Compound 5, 3-cyano-1-(2,6-dichloro-4-trifluoromethylphenyl)-5-methyl-4-trifluoromethylsulfinylpyrazole], in series [1], the LC50 was below 6 mg/L. For the same compound, in series [1], the pest or weed control at 25 µg/mL is at least 80%. Moreover, the mortality at 500 g/ha in series [3], in series [5] and in series [4] was at least 80% throughout.
As for `N#Cc1nn(-c2c(Cl)cc(C(F)(F)F)cc2Cl)c(N)c1[S+]([O-])C(F)(F)F` (stereo not shown) [fipronil], the LD50 result in series [6] is given as “around 20 ppm”.
Turning to `N#Cc1ccc(CC(=NNC(=O)Nc2ccc(OC(F)(F)F)cc2)c2cccc(C(F)(F)F)c2)cc1` (mixture of isomers) [Metaflumizone], the “oral LD50” value in series [7] is reported as > 5,000 mg/kg.
Turning to `Cc1c(SC(F)(F)F)c(C#N)nn1-c1c(F)cc(C(F)(F)F)cc1Cl` [Compound 7, 1-(2-Chloro-6-fluoro-4-trifluoromethylphenyl)-3-cyano-5-methyl-4-trifluoromethylthiopyrazole], in series [1], the LC50 is below 6 mg/L and the pest or weed control at 25 µg/mL was at least 80%. In series [3], this compound had a mortality at 500 g/ha of at least 80%. In addition, in series [4], the mortality at 500 g/ha is at least 80%.
Take `N#Cc1nn(-c2c(Cl)cc(C(F)(F)F)cc2Cl)c(CF)c1[S+]([O-])C(F)(F)F` (stereo not shown) [Compound 10, 3-Cyano-1-(2,6-dichloro-4-trifluoromethylphenyl)-5-fluoromethyl-4-trifluoromethylsulfinylpyrazole]: in series [1], the LC50 is below 6 mg/L. Also, the pest or weed control at 25 µg/mL in series [1] is at least 80%. The mortality at 500 g/ha in series [8], in series [3], in series [5] and in series [4] was at least 80% in each case.
Turning to `Cc1c(SC(F)(F)F)c(C#N)nn1-c1c(Cl)cc(C(F)(F)F)cc1Cl` [Compound 1, 3-Cyano-1-(2,6-dichloro-4-trifluoromethylphenyl)-5-methyl-4-trifluoromethylthiopyrazole], in series [1], the LC50 is below 6 mg/L and the pest or weed control at 25 µg/mL was at least 80%. In addition, the mortality at 500 g/ha in series [3] is at least 80%. In addition, the mortality at 500 g/ha in series [4] was at least 80%.
In the case of `Cc1c(S(=O)(=O)C(F)(F)F)c(C#N)nn1-c1c(Cl)cc(C(F)(F)F)cc1Cl` [Compound 4, 3-cyano-1-(2,6-dichloro-4-trifluoromethylphenyl)-5-methyl-4-trifluoromethylsulfonylpyrazole], in series [1], the LC50 is below 6 mg/L. In series [1], the pest or weed control at 25 µg/mL is at least 80%. Further, the mortality at 500 g/ha in series [3] and in series [4] was at least 80% each time.
As to `Cc1c([S+]([O-])C(F)(F)F)c(C#N)nn1-c1c(F)cc(C(F)(F)F)cc1Cl` (stereo not shown) [Compound 9, 1-(2-Chloro-6-fluoro-4-trifluoromethylphenyl)-3-cyano-5-methyl-4-trifluoromethylsulfinylpyrazole], in series [1], the LC50 is below 6 mg/L and the pest or weed control at 25 µg/mL was at least 80%. The mortality at 500 g/ha in series [3] is at least 80%. In series [4], this compound showed a mortality at 500 g/ha of at least 80%.
As to `N#Cc1nn(-c2c(F)cc(C(F)(F)F)cc2Cl)c(CF)c1SC(F)(F)F` [Compound 8, 1-(2-Chloro-6-fluoro-4-trifluoromethylphenyl)-3-cyano-5-fluoromethyl-4-trifluoromethylthiopyrazole], in series [1], the LC50 is below 6 mg/L and the pest or weed control at 25 µg/mL is at least 80%. This compound displayed a mortality at 500 g/ha in series [3] of at least 80%. In series [4], this compound displayed a mortality at 500 g/ha of at least 80%.
For `Cc1c(SC(F)(F)F)c(C#N)nn1-c1c(F)cc(C(F)(F)F)cc1F` [Compound 6, 3-cyano-1-(2,6-difluoro-4-trifluoromethylphenyl)-5-methyl-4-trifluoromethylthiopyrazole], in series [1], the LC50 was below 6 mg/L and the pest or weed control at 25 µg/mL is at least 80%. The mortality at 500 g/ha in series [3] is at least 80%. Moreover, the mortality at 500 g/ha in series [4] was at least 80%.
In the case of `Cc1c(SC(F)(F)F)c(C#N)nn1-c1c(Cl)cc(OC(F)(F)F)cc1Cl` [Compound 17, 3-Cyano-1-(2,6-dichloro-4-trifluoromethoxyphenyl)-5-methyl-4-trifluoromethylthiopyrazole], in series [1], the LC50 was below 6 mg/L and the pest or weed control at 25 µg/mL is at least 80%. Further, the mortality at 500 g/ha in series [3] is at least 80%.
`N#Cc1nn(-c2c(Cl)cc(C(F)(F)F)cc2Cl)c(CF)c1SC(F)(F)F` [Compound 3, 3-cyano-1-(2,6-dichloro-4-trifluoromethylphenyl)-5-fluoromethyl-4-trifluoromethylthiopyrazole]: in series [1], the LC50 was below 6 mg/L and the pest or weed control at 25 µg/mL is at least 80%. Further, the mortality at 500 g/ha in series [3] was at least 80%. This compound also had a mortality at 500 g/ha in series [4] of at least 80%.
As for `N#Cc1nn(-c2c(Cl)cc(OC(F)(F)F)cc2Cl)c(CF)c1SC(F)(F)F` [Compound 16, 3-Cyano-1-(2,6-dichloro-4-trifluoromethoxyphenyl)-5-fluoromethyl-4-trifluoromethylthiopyrazole], the LC50 in series [1] was below 6 mg/L. Besides, the pest or weed control at 25 µg/mL in series [1] was at least 80%. Also, the mortality at 500 g/ha in series [3] and in series [4] was at least 80% each time.
Take `Cc1cc(C(F)(F)F)cc(Cl)c1-n1nc(C#N)c([S+]([O-])C(F)(F)F)c1C` (stereo not shown) [Compound 44, 1-(2-Chloro-6-methyl-4-trifluoromethylphenyl)-3-cyano-5-methyl-4-trifluoromethylsulfinylpyrazole]: the LC50 in series [1] was below 6 mg/L. Moreover, the pest or weed control at 25 µg/mL in series [1] is at least 80%. Besides, the mortality at 500 g/ha in series [3] and in series [4] was at least 80% throughout.
As for `N#Cc1nn(-c2c(F)cc(C(F)(F)F)cc2Cl)c(CF)c1[S+]([O-])C(F)(F)F` (stereo not shown) [Compound 11, 1-(2-Chloro-6-fluoro-4-trifluoromethylphenyl)-3-cyano-5-fluoromethyl-4-trifluoromethylsulfinylpyrazole], in series [1], the LC50 is below 6 mg/L and the pest or weed control at 25 µg/mL is at least 80%. This compound displayed a mortality at 500 g/ha in series [3] of at least 80%.

As a reminder, the mortality is the share of the test organisms that died.
